Results from BigSolDB 2.1.

[NH3+]O.[NH3+]O.[O-]n1nnnc1-c1nnnn1[O-]
solubility (mole fraction) (in acetic acid, 298.15 K): 7.44e-05 | solubility (mole fraction) (in acetic acid, 303.15 K): 8.86e-05 | solubility (mole fraction) (in acetic acid, 308.15 K): 0.000105 | solubility (mole fraction) (in acetic acid, 313.15 K): 0.000125 | solubility (mole fraction) (in acetic acid, 318.15 K): 0.000146 | solubility (mole fraction) (in acetic acid, 323.15 K): 0.000171 | solubility (mole fraction) (in acetic acid, 328.15 K): 0.000199 | solubility (mole fraction) (in acetic acid, 333.15 K): 0.000231 | solubility (mole fraction) (in ethanol, 298.15 K): 1.35e-05 | solubility (mole fraction) (in ethanol, 303.15 K): 1.54e-05 | solubility (mole fraction) (in ethanol, 308.15 K): 1.76e-05 | solubility (mole fraction) (in ethanol, 313.15 K): 2.01e-05 | solubility (mole fraction) (in ethanol, 318.15 K): 2.27e-05 | solubility (mole fraction) (in ethanol, 323.15 K): 2.56e-05 | solubility (mole fraction) (in ethanol, 328.15 K): 2.88e-05 | solubility (mole fraction) (in ethanol, 333.15 K): 3.24e-05 | solubility (mole fraction) (in formic acid, 298.15 K): 0.00144 | solubility (mole fraction) (in formic acid, 303.15 K): 0.00163 | solubility (mole fraction) (in formic acid, 308.15 K): 0.00183 | solubility (mole fraction) (in formic acid, 313.15 K): 0.00205 | solubility (mole fraction) (in formic acid, 318.15 K): 0.00229 | solubility (mole fraction) (in formic acid, 323.15 K): 0.00254 | solubility (mole fraction) (in formic acid, 328.15 K): 0.00283 | solubility (mole fraction) (in formic acid, 333.15 K): 0.00313 | solubility (mole fraction) (in water, 298.15 K): 0.000128 | solubility (mole fraction) (in water, 303.15 K): 0.000156 | solubility (mole fraction) (in water, 308.15 K): 0.00019 | solubility (mole fraction) (in water, 313.15 K): 0.000228 | solubility (mole fraction) (in water, 318.15 K): 0.000274 | solubility (mole fraction) (in water, 323.15 K): 0.000325 | solubility (mole fraction) (in water, 328.15 K): 0.000385 | solubility (mole fraction) (in water, 333.15 K): 0.000456
